This note sets out measurements from US12528812B2 (Genentech, Inc., priority 2020, dated 2026).

Each structure is given as a SMILES string. Where two headings read alike, the source gives them in different places.

The target in test [1] is Recombinant human JAK2 kinase domain protein (Residues 812-1132) (Homo sapiens, UniProt O60674). Kind of test: JAK2 biochemical assay (LabChip mobility shift, Ki). Conditions: Biochem JAK2 Ki.
Test [2] deals with IL-13-stimulated STAT6 phosphorylation in human lung bronchial epithelial BEAS-2B cell line. As to the kind of experiment: P-STAT6 BEAS-2B + IL-13 cell assay. It is filed as cell-based. As to conditions: BEAS2B cells, IL13 stimulation, read-out: Cellular JAK1 PSTAT6 BEAS2B + IL13. In short, it runs like this: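 BEAS-2B cells grown 48 h at 37 °C, pre-treated 1 h with compound (10-point 1:2 dilution curve), then stimulated 15 min with human recombinant IL-13 (250 ng/mL stock). Lysate P-STAT6 (Tyr641) read by MSD sandwich ELISA with total-STAT6 capture; IC50 from four-parameter logistic fit of control-normalised data.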

The target in test [3] is T1, recombinant human JAK1 kinase domain protein (Residues 854-1154) (Homo sapiens, UniProt P23458).
T1 construct: human JAK1 kinase domain protein (Residues 854-1154); purchased Proteros Biostructures GmbH (Martinsried, Germany); host or cells: insect cells
As to the kind of experiment: JAK1 biochemical assay (LabChip mobility shift, Ki). As to conditions: read-out: Biochem JAK1 Ki.

Chain of Recombinant human JAK2 kinase domain protein (Residues 812-1132) (O60674 812-1132): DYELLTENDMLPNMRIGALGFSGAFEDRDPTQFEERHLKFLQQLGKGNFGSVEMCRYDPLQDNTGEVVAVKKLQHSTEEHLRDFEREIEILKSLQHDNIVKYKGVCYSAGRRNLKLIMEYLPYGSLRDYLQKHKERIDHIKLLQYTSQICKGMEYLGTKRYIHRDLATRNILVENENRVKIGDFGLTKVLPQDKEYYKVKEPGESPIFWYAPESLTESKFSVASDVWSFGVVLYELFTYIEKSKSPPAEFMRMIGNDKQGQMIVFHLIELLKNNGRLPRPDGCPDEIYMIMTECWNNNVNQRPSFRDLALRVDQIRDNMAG
T1 sequence (P23458 854-1154): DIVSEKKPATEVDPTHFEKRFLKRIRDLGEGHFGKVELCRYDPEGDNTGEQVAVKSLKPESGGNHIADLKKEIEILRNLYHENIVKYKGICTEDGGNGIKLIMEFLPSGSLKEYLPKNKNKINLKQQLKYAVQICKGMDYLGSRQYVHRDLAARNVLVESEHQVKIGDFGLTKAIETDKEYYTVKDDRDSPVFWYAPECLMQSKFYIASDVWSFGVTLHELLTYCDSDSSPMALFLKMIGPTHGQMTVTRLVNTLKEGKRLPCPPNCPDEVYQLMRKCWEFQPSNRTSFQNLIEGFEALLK

As to `CCn1cc(NC(=O)c2cnn3cccnc23)c(-c2cc(Oc3cc(F)cc(C4(O)CN(C)C4)c3)ccc2OC(F)F)n1` [Example 107, N-[3-[2-(difluoromethoxy)-5-[3-fluoro-5-(3-hydroxy-1-methyl-azetidin-3-yl)phenoxy]phenyl]-1-ethyl-pyrazol-4-yl]pyrazolo[1,5-a]pyrimidine-3-carboxamide], the values for the Ki in test [1] and in test [3] were 0.49 nM and 0.43 nM, respectively. The IC50 in test [2] (Homo sapiens, BEAS-2B) came to 37 nM.

As to `CCn1cc(NC(=O)c2cnn3cccnc23)c(-c2cc(Oc3cccc(C4(O)CN(C)C4)c3)ccc2OC(F)F)n1` [Example 108, N-[3-[2-(difluoromethoxy)-5-[3-(3-hydroxy-l-methyl-azetidin-3-yl)phenoxy]phenyl]-1-ethyl-pyrazol-4-yl]pyrazolo[1,5-a]pyrimidine-3-carboxamide], the Ki in test [1] worked out at 0.72 nM; in test [3] it was 0.69 nM. The IC50 in test [2] (Homo sapiens, BEAS-2B) is 60 nM.

For the compound `Cn1cc(NC(=O)c2cnn3cccnc23)c(-c2cc(Oc3cc(C4CC4)cc(C4(O)CNC4)c3)ccc2OC(F)F)n1` [Example 109, N-[3-[5-[3-cyclopropyl-5-(3-hydroxyazetidin-3-yl)phenoxy]-2-(difluoromethoxy)phenyl]-1-methyl-pyrazol-4-yl]pyrazolo[1,5-a]pyrimidine-3-carboxamide], the Ki amounted to 0.58 nM in test [1] and 0.88 nM in test [3]. In addition, the IC50 in test [2] (Homo sapiens, BEAS-2B) is 250 nM.

As for `CN1CC(O)(c2cc(Oc3ccc(OC(F)F)c(-c4nn(C)cc4NC(=O)c4cnn5cccnc45)c3)cc(C3CC3)c2)C1` [Example 110, N-[3-[5-[3-cyclopropyl-5-(3-hydroxy-l-methyl-azetidin-3-yl)phenoxy]-2-(difluoromethoxy)phenyl]-1-methyl-pyrazol-4-yl]pyrazolo[1,5-a]pyrimidine-3-carboxamide], the Ki in test [1] came to 0.36 nM; in test [3], 0.69 nM. The IC50 in test [2] (Homo sapiens, BEAS-2B) is 30 nM.

`CCn1cc(NC(=O)c2cnn3cccnc23)c(-c2cc(Oc3cc(F)cc(C4(O)CNC4)c3)ccc2OC(F)F)n1` [Example 111, N-[3-[2-(difluoromethoxy)-5-[3-fluoro-5-[3-hydroxyazetidin-3-yl)phenoxy]phenyl]-1-ethyl-pyrazol-4-yl]pyrazolo[1,5-a]pyrimidine-3-carboxamide]: the Ki in test [1] was 0.56 nM; in test [3] it was 0.38 nM. Besides, the IC50 in test [2] (Homo sapiens, BEAS-2B) was found to be 270 nM.

As to `CCn1cc(NC(=O)c2cnn3cccnc23)c(-c2cc(Oc3cccc(C4(O)CNC4)c3)ccc2OC(F)F)n1` [Example 112, N-[3-[2-(difluoromethoxy)-5-[3-(3-hydroxyazetidin-3-yl)phenoxy]phenyl]-1-ethyl-pyrazol-4-yl]pyrazolo[1,5-a]pyrimidine-3-carboxamide], the values for the Ki in test [1] and in test [3] were 0.46 nM and 0.38 nM, respectively. Moreover, the IC50 in test [2] (Homo sapiens, BEAS-2B) worked out at 110 nM.

Consider `CN1CC(n2cc(Oc3ccc(OC(F)F)c(-c4nn(C)cc4NC(=O)c4cnn5cccnc45)c3)cn2)C1` [Example 115, N-[3-[2-(difluoromethoxy)-5-[1-(1-methylazetidin-3-yl)pyrazol-4-yl]oxy-phenyl]-1-methyl-pyrazol-4-yl]pyrazolo[1,5-a]pyrimidine-3-carboxamide], for which the Ki in test [1] turned out to be 1.6 nM; in test [3], 3 nM. Also, the IC50 in test [2] (Homo sapiens, BEAS-2B) is 48 nM.

Take `Cn1cc(NC(=O)c2cnn3cccnc23)c(-c2cc(Oc3cnn(C4CNC4)c3)ccc2OC(F)F)n1` [Example 116, N-[3-[5-[l-(azetidin-3-yl)pyrazol-4-yl]oxy-2-(difluoromethoxy)phenyl]-1-methyl-pyrazol-4-yl]pyrazolo[1,5-a]pyrimidine-3-carboxamide]: the Ki was found to be 0.84 nM in test [1] and 1.5 nM in test [3]. In addition, the IC50 in test [2] (Homo sapiens, BEAS-2B) stood at 95 nM.

For `CN1CC(CC#N)(n2cc(Oc3ccc(OC(F)F)c(-c4nn(C)cc4NC(=O)c4cnn5cccnc45)c3)cn2)C1` [Example 117, N-[3-[5-[1-[3-(cyanomethyl)-1-methyl-azetidin-3-yl]pyrazol-4-yl]oxy-2-(difluoromethoxy)phenyl]-1-methyl-pyrazol-4-yl]pyrazolo[1,5-a]pyrimidine-3-carboxamide], the Ki in test [1] was determined as 0.66 nM; in test [3] it was 1.5 nM. Also, in test [2] (Homo sapiens, BEAS-2B), the IC50 was 84 nM.

For `Cn1cc(NC(=O)c2cnn3cccnc23)c(-c2cc(Oc3cnn(C4CC(O)C4)c3)ccc2OC(F)F)n1` (stereo not drawn) [Example 118, N-[3-[2-(difluoromethoxy)-5-[1-(3-hydroxycyclobutyl)pyrazol-4-yl]oxy-phenyl]-1-methyl-pyrazol-4-yl]pyrazolo[1,5-a]pyrimidine-3-carboxamide], the values for the Ki in test [1] and in test [3] were 0.5 nM and 0.43 nM, respectively. In addition, the IC50 in test [2] (Homo sapiens, BEAS-2B) is 48 nM.

In the case of `Cn1cc(NC(=O)c2cnn3cccnc23)c(-c2cc(Oc3cnn(C4CC(O)C4)c3)ccc2OC(F)F)n1` (stereo not drawn) [Example 119, N-[3-[2-(difluoromethoxy)-5-[1-(3-hydroxycyclobutyl)pyrazol-4-yl]oxy-phenyl]-1-methyl-pyrazol-4-yl]pyrazolo[1,5-a]pyrimidine-3-carboxamide], the Ki in test [1] was determined as 0.52 nM; in test [3] it was 0.9 nM. For the same compound, the IC50 in test [2] is 41 nM.

Consider `Cn1cc(NC(=O)c2cnn3cccnc23)c(-c2cc(Oc3cnn(CC4(O)CNC4)c3)ccc2OC(F)F)n1` [Example 122, N-[3-[2-(difluoromethoxy)-5-[1-[(3-hydroxyazetidin-3-yl)methyl]pyrazol-4-yl]oxy-phenyl]-1-methyl-pyrazol-4-yl]pyrazolo[1,5-a]pyrimidine-3-carboxamide], for which the Ki was found to be 0.56 nM in test [1] and 0.52 nM in test [3]. Moreover, in test [2] (Homo sapiens, BEAS-2B), the IC50 turned out to be 390 nM.

For `Cn1cc(NC(=O)c2cnn3cccnc23)c(-c2cc(Oc3cnn(CC4CNC4)c3)ccc2OC(F)F)n1` [Example 123, N-[3-[5-[1-(azetidin-3-ylmethyl)pyrazol-4-yl]oxy-2-(difluoromethoxy)phenyl]-1-methyl-pyrazol-4-yl]pyrazolo[1,5-a]pyrimidine-3-carboxamide], the Ki came out at 0.74 nM in test [1] and 0.61 nM in test [3]. Moreover, the IC50 in test [2] (Homo sapiens, BEAS-2B) amounted to 370 nM.

As to `Cn1cc(NC(=O)c2cnn3cccnc23)c(-c2cc(Oc3cnn(CC(C)(C)O)c3)ccc2OC(F)F)n1` [Example 124, N-[3-[2-(difluoromethoxy)-5-[1-(2-hydroxy-2-methyl-propyl)pyrazol-4-yl]oxy-phenyl]-1-methyl-pyrazol-4-yl]pyrazolo[1,5-a]pyrimidine-3-carboxamide], the Ki came to 0.21 nM in test [1] and 0.39 nM in test [3]. Moreover, the IC50 in test [2] (Homo sapiens, BEAS-2B) was found to be 29 nM.

Consider `Cn1cc(NC(=O)c2cnn3cccnc23)c(-c2cc(Oc3cnn(CC4COC4)c3)ccc2OC(F)F)n1` [Example 125, N-[3-[2-(difluoromethoxy)-5-[1-(oxetan-3-ylmethyl)pyrazol-4-yl]oxy-phenyl]-1-methyl-pyrazol-4-yl]pyrazolo[1,5-a]pyrimidine-3-carboxamide], for which the Ki in test [1] came out at 0.38 nM; in test [3], 0.82 nM. Further, the IC50 in test [2] (Homo sapiens, BEAS-2B) came out at 87 nM.

For the compound `Cn1cc(NC(=O)c2cnn3cccnc23)c(-c2cc(Oc3cnn(CCN)c3)ccc2OC(F)F)n1` [Example 126, N-[3-[5-[1-(2-aminoethyl)pyrazol-4-yl]oxy-2-(difluoromethoxy)phenyl]-1-methyl-pyrazol-4-yl]pyrazolo[1,5-a]pyrimidine-3-carboxamide], the Ki came to 0.91 nM in test [1] and 1.1 nM in test [3]. For the same compound, the IC50 in test [2] (Homo sapiens, BEAS-2B) is 67 nM.

By Ki is commonly meant the equilibrium dissociation constant of an inhibitor or competing ligand from its target.
